“And” between values parts separate entries of the source, which are not always exact repeats. Identical values can stand only once. “Also recorded” adds a separate entry of the source. Positions of bridges follow the written chain, without caps; N, C: chain ends. Non-standard residues stand in square brackets, D forms with d. Residues, ends and D or L forms follow the SMILES beside them. *: point of attachment. Octatrienoyl(2E,4E,6E) = C/C=C/C=C/C=C/C(=O)*; Pro(4R-Me) = C[C@H]1CN[C@H](C(=O)O)C1; NMeA = CN[C@@H](C)C(=O)O
Legend:
E. coli ClpP [1] = biological target: T1, E. coli ClpP (Escherichia coli, UniProt P0A6G7); experiment: Peptidase assay, oxidized insulin B chain; format: biochemical; details: 30-residue peptide; pH 8.0, 0.1 M KCl, 37 °C; Supplemental Table 1
T1 sequence (P0A6G7 15-207): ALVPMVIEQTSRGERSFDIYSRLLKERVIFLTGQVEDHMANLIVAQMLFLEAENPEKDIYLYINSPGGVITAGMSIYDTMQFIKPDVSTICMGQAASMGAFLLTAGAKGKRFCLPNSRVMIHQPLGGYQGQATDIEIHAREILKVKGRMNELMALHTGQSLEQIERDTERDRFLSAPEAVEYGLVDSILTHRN

[2] = test system: interaction between ClpP and ClpA; experiment: ClpP-ClpA interaction; format: binding, Escherichia coli; details: Figure S2
ClpP tetradecamer = experiment: Sedimentation velocity, oligomeric state of ClpP; design: species or system Escherichia coli
ClpPin [3] = experiment: Negative stain EM, translocation of β-casein into ClpPin; format: biochemical, Escherichia coli
ClpPin [4] = experiment: Negative stain EM, translocation of EGFP-SsrA into ClpPin; format: biochemical, Escherichia coli; details: ADEP1 vs no compound, Figure S3B
E. coli ClpP [5] = biological target: T1, E. coli ClpP; experiment: Crystal structure of ClpP-ADEP1 complex; format: binding
ClpP N-terminal loop = experiment: Limited proteolysis of ClpP with Staphylococcus aureus protease V8; format: biochemical, Escherichia coli; details: presence vs absence of ADEP1; cleavage at Glu8 and Glu14; Figure S6
E. coli ClpP [6] = biological target: T1, E. coli ClpP; details: Figure S1A, SDS-PAGE
E. coli ClpP [7] = biological target: T1, E. coli ClpP
ClpP = details: in the presence of ADEP1; ref Brotz-Oesterhelt et al., 2005; cited from earlier work
E. coli ClpP [8] = biological target: T1, E. coli ClpP; experiment: biochemical

C/C=C/C=C/C=C/C(=O)N[C@@H](Cc1ccccc1)C(=O)N[C@H]1COC(=O)[C@@H]2C[C@@H](C)CN2C(=O)[C@H](C)NC(=O)[C@H](C)N(C)C(=O)[C@@H]2CCCN2C1=O [ADEP1] ({Octatrienoyl(2E,4E,6E)}-FSP[NMeA]A[Pro(4R-Me)]; ester 2-C; N-terminus assumed)
cleavage of oxidized insulin β chain (E. coli ClpP [1]): activated cleavage
interaction between ClpP and ClpA [2]: blocked interaction between ClpP and ClpA
effect on ClpP tetradecamer formation (ClpP tetradecamer): enhances rather than disrupts tetradecamer formation
stain penetration into ClpPin without β-casein (ClpPin [3]; ADEP1 alone, absence of β-casein, data not shown): did not prevent stain penetration into the ClpPin chamber
shift of particle intensity distribution, β-casein translocation (ClpPin [3]; ClpPin, ADEP1 vs no compound, Figure S3A): significant shift of particles to higher intensity values
shift of particle intensity distribution, EGFP-SsrA (ClpPin [4]): no significant differences
conformation of N-terminal loops on ADEP1 binding (E. coli ClpP [5]): locks the N-terminal loops in an open β-hairpin conformation
rigid-body movement of ClpP monomer on ADEP1 binding (E. coli ClpP [5]): 1.5-2 Å
widening of interface between adjacent ClpP monomers (E. coli ClpP [5]): about 1 Å
axial pore diameter of ClpP bound to ADEP1 (E. coli ClpP [5]; 1.9 Å, PDB 3MT6, apo 12 Å or less): ~ 20 Å and 20 Å
binding site and contacts of ADEP1 on ClpP (E. coli ClpP [5]; Figure 5B): binds in the hydrophobic groove that serves as the primary docking site for ClpP ATPases; also recorded: binds to a hydrophobic pocket on the outer edge of the apical surface of ClpP; also recorded: Tyr62 forms hydrogen bonds with both the phenylalanine and the alanine moieties of the compound; also recorded: the phenylalanine, β-methylproline and alanine moieties, as well as the aliphatic tail in ADEP1 are critical for binding, while the N-methylalanine and proline moieties have minimal interactions with the protein
stoichiometry of ADEP1 binding (E. coli ClpP [5]; heptameric ring): one molecule of ADEP1 to each one of the seven hydrophobic clefts in the heptameric ring
limited proteolysis of ClpP by V8 protease (ClpP N-terminal loop): significantly slower
degradation of β-casein compared with ClpA and ATP (E. coli ClpP [6]; 37 °C): comparable to that observed when ClpA and ATP were present
pattern of β-casein degradation products (processivity) (E. coli ClpP [6]): generated numerous partially degraded products
activation of F-V cleavage compared with ClpA (E. coli ClpP [7]; F-V 1 mM, ClpP 1 μg/ml, 10 μM ADEP1 vs ClpA 10 μg/ml with 1 mM ATPγS, 37 °C, pH 8.0): comparable to the allosteric activation seen with ClpA
activity of ClpP alone relative to activity with ADEP1 present (E. coli ClpP [7]; F-V cleavage, 10 μM ADEP1, average of two separate experiments): ~ 2%
degradation of EGFP-SsrA by ClpP (ClpP): not degraded
EC50 (E. coli ClpP [8]): 370 nM

— publication PMC2955292 (Chemistry & biology, 2010)
